What all share (assay): inhibition of tumour cell growth, NCI panel, 48 h
Test [1] deals with OVCAR-3.
In test [2] the test system is HCT-15.
Test [3] relates to MOLT-4.
Test [4] deals with SW-620.
Test [5] relates to NCI-H460.
Test [6] has as its system A498.
For test [7], the system named is U-251.
Test [8] relates to RXF 393.
For test [9], the system named is NCI-H522.
In test [10] the test system is RPMI-8226.
For test [11], the system named is HOP-92.
The test system of test [12] is M19-MEL.
In test [13] the test system is SK-MEL-2.
Test [14] has as its system SK-MEL-5.
The test system of test [15] is HL-60.
For test [16], the system named is UACC-62.
The test system of test [17] is COLO 205.
Test [18] deals with MDA-MB-231.
The test system of test [19] is Hs-578T.
Test [20] has as its system MCF7.

The values that follow come from ChEMBL document CHEMBL1201862, “PubChem BioAssay data set” (2004).

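Dose response: 5 concentrations. Exposure: 48 h. Format: 96-well plates. Endpoint: linear interpolation; highest concentration if not reached. GI50 marks 50% less growth.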 Calls of active or inactive are those of the source. Cut-off read from the data, not from the text of the source: active = GI50 up to about 1.1 µM and inactive = higher.

Regarding `CC1=C2C(=O)C(C)(C)C=C2C(=O)[C@](C)(O)C12CC2` [DEHYDROILLUDIN M], the GI50 in [1] is > 1 µM (active); in test [2], 0.468 µM; in test [3], > 1 µM (active); in test [4] it was > 1 µM (active); in test [5], 0.23 µM (active); in test [6], > 1 µM (active). In addition, the GI50 was 0.484 µM (active) in test [7]; 0.593 µM (active) in [8]; 0.245 µM (active) in test [9]; > 1 µM (active) in test [10]; > 1 µM (active) in test [11]; > 0.953 µM (active) in [12]. For the same compound, the GI50 in test [13] is 0.614 µM (active); in test [14], 0.296 µM (active); in test [15], 0.247 µM (active); in [16] it was 0.586 µM (active); in test [17] it was > 1 µM (active).
With `NS(=O)(=O)OCCCCCCCOS(N)(=O)=O`, the GI50 in test [18] is 445 µM (inactive); in [1], 361 µM (inactive); in test [2] it was 349 µM; in [3], 24.2 µM (inactive); in test [4], 334 µM (inactive); in [5] it was 23 µM (inactive). Also, the GI50 was 377 µM (inactive) in test [6]; 198 µM (inactive) in test [7]; 289 µM (inactive) in test [8]; 259 µM (inactive) in test [9]; 527 µM (inactive) in test [19]; 296 µM (inactive) in [10]. Further, the GI50 in test [11] is 215 µM (inactive); in [20] it was 101 µM (inactive); in [12], 383 µM (inactive); in test [13], 364 µM (inactive); in [14], 319 µM (inactive); in test [15], 33 µM (inactive). For the same compound, the GI50 in test [16] is 61.4 µM (inactive); in test [17], 394 µM (inactive).
Take `COc1cc2c(cc1OC)C(CC(=O)NN=C(C)C)NCC2` (stereo not drawn): the GI50 in test [1] is > 100 µM (inactive); in [2] it was over 100 µM; in [3], > 100 µM (inactive); in test [4] it was > 100 µM (inactive); in [5] it was > 100 µM (inactive); in [6], > 100 µM (inactive). Also, the GI50 in test [7], in test [8], in test [9], in test [10], in test [11] and in test [12] was > 100 µM (inactive) each time. The GI50 in [13], in test [14], in [15], in [16] and in [17] was > 100 µM (inactive) in each case.
`COc1ccccc1NC(=O)CC(=O)n1nc(C)c(/N=N/c2ccccc2F)c1C`: the GI50 was > 100 µM (inactive) in [1]; over 100 µM in test [2]; > 31.6 µM (inactive) in test [3]; > 100 µM (inactive) in test [4]; > 100 µM (inactive) in [5]; > 100 µM (inactive) in [6]. The GI50 in test [7] is 58.6 µM (inactive); in test [8] it was > 57.3 µM (inactive); in [9], > 100 µM (inactive); in test [10], > 100 µM (inactive); in test [11], 37.7 µM (inactive); in [12], > 100 µM (inactive). Also, the GI50 in test [13], in [14], in [15], in [16] and in [17] was > 100 µM (inactive) throughout.
As to `O=C1c2c(O)cccc2C(C(=O)CCCC(=O)C2c3cccc(O)c3C(=O)c3c(O)cccc32)c2cccc(O)c21`, the GI50 in [18] is 0.0822 µM (active); in test [1], 0.158 µM (active); in [2], 0.259 µM; in test [3], 0.966 µM (active); in [4], 0.244 µM (active); in test [5] it was 0.0803 µM (active). Also, the GI50 in test [6] was 0.957 µM (active); in [7], 0.212 µM (active); in test [9], 0.158 µM (active); in [19] it was 0.0665 µM (active); in [10] it was 0.0679 µM (active); in test [11], 0.217 µM (active). Moreover, the GI50 in test [20] was 0.598 µM (active); in [12], 0.151 µM (active); in test [13] it was 0.322 µM (active); in test [14], 0.259 µM (active); in test [15], 0.0824 µM (active); in test [16], 0.327 µM (active). In test [17], the GI50 is 0.34 µM (active).
Turning to `CSc1ccc2c(cc1=O)C(NC(=O)c1ccccc1)CCc1cc(O)c(O)c(O)c1-2` (stereo not drawn), the GI50 in [1] is 2.51 µM (inactive); in test [2], 18.1 µM; in test [3], 21.3 µM (inactive); in test [4], 15.7 µM (inactive); in [5], 19 µM (inactive); in [6], 22.3 µM (inactive). For the same compound, the GI50 in test [7] was 6.37 µM (inactive); in test [8], 24.5 µM (inactive); in [9], 17.1 µM (inactive); in test [10] it was 19.1 µM (inactive); in test [11], 4.06 µM (inactive); in test [12], 4.94 µM (inactive). Moreover, the GI50 in test [13] was 5.5 µM (inactive); in test [14], 2.61 µM (inactive); in test [15], 7.43 µM (inactive); in test [16] it was 5.05 µM (inactive); in test [17], 23.2 µM (inactive).
Take `CNC(N)NC`: the GI50 was > 100 µM (inactive) in test [1]; over 100 µM in [2]; > 100 µM (inactive) in test [3]; > 100 µM (inactive) in test [4]; > 100 µM (inactive) in test [5]; > 100 µM (inactive) in test [6]. Moreover, the GI50 in test [7], in test [8], in [9], in test [10], in [11] and in test [12] was > 100 µM (inactive) each time. In addition, the GI50 in [13], in test [14], in [15], in test [16] and in [17] was > 100 µM (inactive) throughout.
In the case of `c1ccc(CN(Cn2cccn2)Cn2cccn2)nc1`, the GI50 in test [1] is > 100 µM (inactive); in test [2], over 100 µM; in [3] it was > 100 µM (inactive); in test [4], > 100 µM (inactive); in test [5], > 100 µM (inactive); in test [6], > 100 µM (inactive). For the same compound, the GI50 was > 100 µM (inactive) in test [7]; > 100 µM (inactive) in test [8]; > 100 µM (inactive) in test [9]; 29.4 µM (inactive) in test [10]; > 100 µM (inactive) in test [11]; > 100 µM (inactive) in test [12]. The GI50 in [13] is > 100 µM (inactive); in [14], > 100 µM (inactive); in test [15], 47.8 µM (inactive); in test [16] it was 43.8 µM (inactive); in test [17] it was > 100 µM (inactive).
`O=C1C2C(C(=O)N1c1ccccc1)C1(Br)c3ccccc3C2(Br)C2C(=O)N(c3ccccc3)C(=O)C21` (stereo not drawn): the GI50 in test [1] is > 31.6 µM (inactive); in [2] it was 23.8 µM; in [3], 20.6 µM (inactive); in test [4], > 31.6 µM (inactive); in test [5], > 31.6 µM (inactive); in test [6], 21.9 µM (inactive). Moreover, the GI50 in test [7] was > 31.6 µM (inactive); in test [8], 11 µM (inactive); in [9] it was > 10 µM (inactive); in test [10], 10.6 µM (inactive); in test [11] it was > 10 µM (inactive); in [12], > 31.6 µM (inactive). The GI50 in test [13] was 31.4 µM (inactive); in test [14], > 31.6 µM (inactive); in test [15], > 31.6 µM (inactive); in test [16], 23.7 µM (inactive); in test [17], > 31.6 µM (inactive).
